Tests used:
[1] = system: permanent middle cerebral occlusion; settings: monkeys, Marshall et al. 2001; cited from earlier work
MCA occlusion = settings: male Wistar rats, 2 hour MCA occlusion, given 1 hour after recirculation; at 48 hours and 7 days; Kuroda et al. 1999; cited from earlier work
cortical neuronal cells = assay: Protection of cortical neuronal cells from H2O2-induced oxidative damage (MTT); type: cell-based; settings: cortical neurons, FIG. 4
Experimental: Cortical neurons (9×10^4 cells/well) were placed into 96-well cell culture plates, and were incubated at 37° C. for 24 h under 5% CO2. The medium was changed, and the cells were incubated for another 12 h. Drugs at different concentrations were added, and the cells were incubated at 37° C. for 30 min. Hydrogen peroxide were then added, and the cells were incubated for 24 h at 37° C. for 24 h under 5% CO2. A solution of 3-(4,5-dimethylthiazol-2-ly)-2,5-diphenyl-tetrazoliun bromide (MTT) was added, and the cells were incubated for another 4 h before DMSO was added. After the crystals were completely dissolved (30 min), the absorbance was read at 570 nm with a spectrophotometer (Bio-Rad Model 680, Japan). The results were expressed as the percentage of the control (saline group).

thrombus = assay: Thrombolytic activity in rats (inferior vena cava ligation, dried thrombus weight); type: in vivo; settings: TBN 3.25 mg/kg i.v.; rat; FIG. 7
Experimental: The abdomen was then closed. Drugs were administered 2 h after ligation i.v. via the dorsal tail vein. The abdomen was reopened after […] of ligation. The thrombus was removed and dried at 50° C. for 24 h. The dried thrombus was weighted.

MCAo rat stroke model = assay: Protection of stroke in MCAo rats (infarct area, TTC staining); type: in vivo; settings: TBN 80 mg/kg i.p. 1 h after occlusion; 2 h ischemia, 24 h reperfusion; FIG. 6
Experimental: Female Sprague-Dawley rats (210-240 g) were anesthetized with 10% chloral hydrate (400 mg/kg) i.p. The right common carotid artery (CCA) was carefully exposed. The occipital branch of the external carotid artery (ECA) was coagulated and the internal carotid artery (ICA) was isolated. A poly-L-lysine-coated nylon suture (0.32 mm in diameter) was inserted into the ECA and advanced retrogradely until the bifurcation of the CCA from where it was advanced a distance of approximately 18-20 mm into the ICA to occlude the MCA. A ligature was tied around the ICA, the incisions were closed, and the animal was extubated.
TMP (50 mg/kg), TBN (80 mg/kg), PBN (65 mg/kg), Eda (62 mg/kg) and saline were administered i.p. 1 h after MAC occlusion, respectively. After 2 h of MCA occlusion, the suture was withdrawn to allow reperfusion. After 24 h of reperfusion, the animals were re-anesthetized with 10% chloral hydrate (400 mg/kg) i.p., and were then decapitated. The brain was quickly removed, rinsed with PBS, and stored in a refrigerator at −20° C. until it was frozen. The brain was sliced with a blade at every 2-mm from the frontal pole, and the slices were stained with 2,3,5-triphenyltetrazolium chloride (TTC, 0.5% in normal saline) for 30 min at 37° C. […] The area of infarction was quantified by the Osiris 4 software, and the results were expressed as the percentage of the total brain section area.

Cortical neurons = assay: Protection of neuronal cells from NMDA excitotoxic damage; type: cell-based; settings: drug 1-1000 μM, NMDA 100 μM, 24 h, FIG. 5
Experimental: Cortical neurons (9×10^4 cells/well) were placed into 96-well cell culture plates, and were incubated at 37° C. for 24 h under 5% CO2. The medium was changed, and the cells were incubated for another 12 h. Drugs at different concentrations 1000 μM, 100 μM, 10 μM, 1 μM) were added, and the cells were incubated at 37° C. for 30 min. NMDA (15 μL) was then added (final concentration of NMDA is 100 μM), and the cells were incubated for 24 h at 37° C. for 24 h under 5% CO2.

[2] = intravenous injection, rat; Sheu et al. 1997; cited from earlier work
thrombosis = settings: rat arterio- and phlebo-thrombosis models; Liu and Sylvester 1990; cited from earlier work
cerebral ischemia = settings: rat 2-h MCA occlusion by intraluminal suture; Ley et al.; cited from earlier work

Which “reduction of overall amount of brain damage vs saline-treated control” value [1] does the source give for `CC(C)(C)[N+]([O-])=Cc1ccc(S(=O)(=O)[O-])cc1S(=O)(=O)[O-].[Na+].[Na+]` [NXY-059, disodium 4-[(tert-butylimino)methyl]benzene-1,3-disulfonate N-oxide] here?
Its value is over 50%.

And the infarct volume (MCA occlusion)?
Its infarct volume is “significantly reduced infarct volume”.

Which “effectiveness relative to Eda in protecting cortical neuronal cells from H2O2-induced damage” value (cortical neuronal cells; H2O2, MTT) does the source give for `Cc1nc(C)c(/C=[N+](\[O-])C(C)(C)C)nc1C` [TBN, 2-[[(1,1-Dimethylethyl)oxidoimino]methyl]-3,5,6-trimethylpyrazine] here?
The value was “approximately 10 fold”.

What about the “protection of cortical neuronal cells from H2O2-induced damage, compared with TMP and PBN” value (cortical neuronal cells; drug 30 min before H2O2, 24 h, MTT) of the same compound?
The value was “more effective than either TMP or PBN”.

What about the “thrombolytic activity (dried thrombus weight)” value (thrombus) of the same compound?
The value was “significant thrombolytic activity”.

What about the “protective effect in MCAo rat stroke model (area of infarction)” value (MCAo rat stroke model) of the same compound?
Its value is “significant protective effects”.

What about the “protection of neuronal cells from NMDA toxicity” value (Cortical neurons) of the same compound?
Its value is “significantly protected”.

Which “prolongation of bleeding time” value [2] does the source give for `Cc1nc(C)c(C)nc1C` [TMP, tetramethylpyrazine] here?
Its value is 1.5 times.

And the thrombolytic activity (thrombosis)?
Its thrombolytic activity is “showed thrombolytic activity”.

With stilbazulenyl nitrone [STAZN] as the compound, how does the “neurological deficits compared with vehicle controls” value (cerebral ischemia) read?
Its value is “improved neurological deficits”.

From US8404688B2, “Nitrone compounds, process of preparation thereof, and use thereof in medicament manufacture” (Jinan University, priority 2008, dated 2013)
